The source of these data is patent US11236044B2, “Selective inhibitors of 12(S)-lipoxygenase (12-LOX) and methods for use of the same” (THE REGENTS OF THE UNIVERSITY OF MICHIGAN, priority 2018, dated 2022).

Structures are written as SMILES. Like-named read-outs stand apart in the source and are kept apart here.

This series can be described thus: Pharmacokinetic study of the inhibitors in mice blood plasma (PO and IV). In kind it is in vivo. The following applies: for concentration at 2 h / concentration at 4 h / concentration at 7 h: mouse, plasma, 30 mg/kg. The method, then:
Pharmacokinetic Study of the Inhibitors in Mice Blood Plasma
The blood plasma concentration of compounds A1, A2, and A4 in mice was determined following per os, oral compound administration (“PO”) and intravenous (“IV”) administration
Calibration curve. The concentration range was evaluated from 2.5-5000 ng/ml for compound A2, 1-5000 ng/ml for compound A4, and 5-5000 ng/ml for compound A1. The curve was built with linear regression with weighing (1/X2). The linear regression analysis was performed by plotting the peak area ratio (y) against the concentration (x) in ng/mL.
Instrument Conditions. The LC-MS and mass spectrometry conditions for the compounds tested are shown below.
Results. The individual and average compound A1, A2, and A4 concentration-time data for IV and PO dosed groups are listed in Table 1, and graphically presented in FIG. 1.

[1] abbreviates: iv, IV 30 mg/kg, 2 h, n=3 (outliers excluded), read-out: Concentration in Plasma, Mean.
Setting [2] is: iv, IV 30 mg/kg, 2 h, read-out: Concentration in Plasma, Mouse 1.
The mark [3] stands for this setting: iv, IV 30 mg/kg, 2 h, read-out: Concentration in Plasma, Mouse 2.
[4] abbreviates: iv, IV 30 mg/kg, 2 h, read-out: Concentration in Plasma, Mouse 3.
Setting [5] is: iv, IV 30 mg/kg, 4 h, read-out: Concentration in Plasma, Mouse 1.
[6] abbreviates: iv, IV 30 mg/kg, 4 h, read-out: Concentration in Plasma, Mouse 3.
[7] abbreviates: iv, IV 30 mg/kg, 7 h, n=3 (outliers excluded), read-out: Concentration in Plasma, Mean.
The mark [8] stands for this setting: iv, IV 30 mg/kg, 7 h, read-out: Concentration in Plasma, Mouse 1.
Setting [9] is: iv, IV 30 mg/kg, 7 h, read-out: Concentration in Plasma, Mouse 2.
Setting [10] is: iv, IV 30 mg/kg, 7 h, read-out: Concentration in Plasma, Mouse 3.
Where [11] appears, read: po, PO 30 mg/kg, 2 h, n=3 (outliers excluded), read-out: Concentration in Plasma, Mean.
Where [12] appears, read: po, PO 30 mg/kg, 2 h, read-out: Concentration in Plasma, Mouse 3.
The mark [13] stands for this setting: po, PO 30 mg/kg, 4 h, n=3 (outliers excluded), read-out: Concentration in Plasma, Mean.
The mark [14] stands for this setting: po, PO 30 mg/kg, 4 h, read-out: Concentration in Plasma, Mouse 1.
[15] abbreviates: po, PO 30 mg/kg, 4 h, read-out: Concentration in Plasma, Mouse 3.
Setting [16] is: po, PO 30 mg/kg, 7 h, n=3 (outliers excluded), read-out: Concentration in Plasma, Mean.
Where [17] appears, read: po, PO 30 mg/kg, 7 h, read-out: Concentration in Plasma, Mouse 1.
Setting [18] is: po, PO 30 mg/kg, 7 h, read-out: Concentration in Plasma, Mouse 2.

As to `COc1cccc(CNc2ccc(S(=O)(=O)Nc3cccc(C(F)(F)F)c3)cc2)c1O` [Compound A2], the “Concentration in Plasma, Mouse 2” value was “*1369.6 ng/ml” (IV 30 mg/kg, 4 h) and “*6042.8 ng/ml” (PO 30 mg/kg, 2 h). The “Concentration in Plasma, Mouse 3” value (PO 30 mg/kg, 7 h) is “*301.8 ng/ml”. For the same molecule, the concentration at 2 h by setting is: under setting [1], 199 ng/mL; under setting [2], 144 ng/mL; under setting [3], 333 ng/mL; under setting [4], 118 ng/mL; under setting [11], 145 ng/mL; (po, PO 30 mg/kg, 2 h, read-out: Concentration in Plasma, Mouse 1) 59 ng/mL. Also, under setting [12], the concentration at 2 h turned out to be 230 ng/mL. The concentration at 4 h runs as follows: (iv, IV 30 mg/kg, 4 h, n=3 (outliers excluded), read-out: Concentration in Plasma, Mean) 112 ng/mL; under setting [5], 127 ng/mL; under setting [6], 96 ng/mL; under setting [13], 74.3 ng/mL; under setting [14], 38.9 ng/mL; (po, PO 30 mg/kg, 4 h, read-out: Concentration in Plasma, Mouse 2) 103 ng/mL. For the same molecule, the concentration at 4 h under setting [15] was found to be 81.2 ng/mL. The concentration at 7 h reads like this: under setting [7], 31 ng/mL; under setting [8], 49.3 ng/mL; under setting [9], 16.4 ng/mL; under setting [10], 27.4 ng/mL; under setting [16], 91.3 ng/mL; under setting [17], 106 ng/mL. Also, the concentration at 7 h under setting [18] was 76.8 ng/mL.

With `COc1cccc(CNc2ccc(S(=O)(=O)Nc3cccc(C4(C(F)(F)F)CC4)c3)cc2)c1O` [Compound A4, 4-((2-hydroxy-3-methoxybenzyl)amino)-N-(3-(1-(trifluoromethyl)cyclopropyl)phenyl)benzenesulfonamide], under “PO 30 mg/kg, 2 h”, the “Concentration in Plasma, Mouse 1” value is “*20.2 ng/ml”. In addition, the “Concentration in Plasma, Mouse 2” value (PO 30 mg/kg, 4 h) is “*127.5 ng/ml”. Moreover, the concentration at 2 h by setting is: under setting [1], 112 ng/mL; under setting [2], 94.2 ng/mL; under setting [3], 172 ng/mL; under setting [4], 71 ng/mL; under setting [11], 5260 ng/mL; (po, PO 30 mg/kg, 2 h, read-out: Concentration in Plasma, Mouse 2) 642 ng/mL. Moreover, the concentration at 2 h under setting [12] came to 410 ng/mL. The concentration at 4 h was determined as 20.8 ng/mL under setting [5]; 28.8 ng/mL (iv, IV 30 mg/kg, 4 h, read-out: Concentration in Plasma, Mouse 2); 20.6 ng/mL under setting [6]; 33.6 ng/mL under setting [13]; 33.4 ng/mL under setting [14]; 33.8 ng/mL under setting [15]. Besides, the concentration at 7 h was found to be 10.2 ng/mL under setting [7]; 24.1 ng/mL under setting [8]; 5.6 ng/mL under setting [9]; 0.8 ng/mL under setting [10]; 29 ng/mL under setting [16]; 33.2 ng/mL under setting [17]. In addition, the concentration at 7 h runs as follows: under setting [18], 22.9 ng/mL; (po, PO 30 mg/kg, 7 h, read-out: Concentration in Plasma, Mouse 3) 30.9 ng/mL.
